These results are taken from ChEMBL document CHEMBL4390649, “Fine-tuning the neuroprotective and blood-brain barrier permeability profile of multi-target agents designed to prevent progressive mitochondrial dysfunction” (Eur J Med Chem, 2019).

For orientation: IC50 means the concentration that gives 50% inhibition.

SMILES strings stand for the structures.

One assay is described as follows: Antioxidant activity assessed as DPPH radical scavenging activity measured after 45 mins by UV-Visible spectrophotometric based assay. Type of assay: functional.
As to `O=C(O)CCc1ccc(O)c(O)c1` [DIHYDROCAFFEIC ACID], the half-inhibitory concentration (IC50) is 24.8 µM.
As for `O=C(O)Cc1ccc(O)c(O)c1` [3,4-DIHYDROXYPHENYLACETIC ACID], the IC50 came to 26.2 µM.
On to `O=C(O)CCc1cc(O)c(O)c(O)c1`, for which the IC50 was 11.1 µM.
The same measure, in the same setting: for `O=C(O)/C=C/c1cc(O)c(O)c(O)c1` the value was 10.3 µM.
With `O=C(O)c1cc(O)c(O)c(O)c1` [GALLIC ACID], the IC50 came out at 9.9 µM.
As to `O=C(O)/C=C/c1ccc(O)c(O)c1` [CAFFEIC ACID], the IC50 was found to be 28.5 µM.
With `O=C(O)Cc1cc(O)c(O)c(O)c1`, the IC50 stood at 6.8 µM.
The same measure, in the same setting: with `O=C(O)c1ccc(O)c(O)c1` [PROTOCATECHUIC ACID] the figure was 42 µM.

The nature of the next assay: Antioxidant activity assessed as ABTS radical scavenging activity measured after 15 mins by UV-Visible spectrophotometric based assay. In kind it is functional.
As to `O=C(O)CCc1ccc(O)c(O)c1` [DIHYDROCAFFEIC ACID], the IC50 was determined as 24 µM.
Still for that read-out and setting: for `O=C(O)Cc1ccc(O)c(O)c1` [3,4-DIHYDROXYPHENYLACETIC ACID] the value was 18 µM.
On the same count and under the same terms, for `O=C(O)CCc1cc(O)c(O)c(O)c1` the value was 9.2 µM; for `O=C(O)/C=C/c1cc(O)c(O)c(O)c1`, 4.6 µM.
In the case of `O=C(O)c1cc(O)c(O)c(O)c1` [GALLIC ACID], the IC50 amounted to 7.8 µM.
Same read-out and setting: with `O=C(O)/C=C/c1ccc(O)c(O)c1` [CAFFEIC ACID] the figure was 20.5 µM; with `O=C(O)Cc1cc(O)c(O)c(O)c1`, 4.7 µM; with `O=C(O)c1ccc(O)c(O)c1` [PROTOCATECHUIC ACID], 26.1 µM.

A further assay in a line: Electrochemical behavior of the compound assessed as redox potential corrected toward saturated Ag/AgCl reference electrode by cyclic voltammetry.
`O=C(O)CCc1ccc(O)c(O)c1` [DIHYDROCAFFEIC ACID]: the Activity came to 112 mV.
As for `O=C(O)Cc1ccc(O)c(O)c1` [3,4-DIHYDROXYPHENYLACETIC ACID], the Activity worked out at 122 mV.
On the same count and under the same terms, with `O=C(O)CCc1cc(O)c(O)c(O)c1` the figure was 120 mV; with `O=C(O)/C=C/c1cc(O)c(O)c(O)c1`, 56 mV; with `O=C(O)c1cc(O)c(O)c(O)c1` [GALLIC ACID], 120 mV.
For the compound `O=C(O)/C=C/c1ccc(O)c(O)c1` [CAFFEIC ACID], the Activity was 168 mV.
On the same count and under the same terms, with `O=C(O)Cc1cc(O)c(O)c(O)c1` the figure was 135 mV; with `O=C(O)c1ccc(O)c(O)c1` [PROTOCATECHUIC ACID], 234 mV.

The next assay can be described thus: Electrochemical behavior of the compound assessed as redox potential corrected toward saturated Ag/AgCl reference electrode by differential pulse voltammetry.
Take `O=C(O)CCc1ccc(O)c(O)c1` [DIHYDROCAFFEIC ACID]: the Activity was determined as 216 mV.
Still for that read-out and setting: with `O=C(O)Cc1ccc(O)c(O)c1` [3,4-DIHYDROXYPHENYLACETIC ACID] the figure was 270 mV; with `O=C(O)CCc1cc(O)c(O)c(O)c1`, 543 mV.
Turning to `O=C(O)/C=C/c1cc(O)c(O)c(O)c1`, the Activity came to 589 mV.
On the same count and under the same terms, with `O=C(O)c1cc(O)c(O)c(O)c1` [GALLIC ACID] the figure was 559 mV; with `O=C(O)/C=C/c1ccc(O)c(O)c1` [CAFFEIC ACID], 168 mV.
Same read-out and setting: for `O=C(O)Cc1cc(O)c(O)c(O)c1` the value was 550 mV.
Same read-out and setting: with `O=C(O)c1ccc(O)c(O)c1` [PROTOCATECHUIC ACID] the figure was 234 mV.
